Results reported in patent US20140094465A1, “Compounds as S-Nitrosoglutathione Reductase Inhibitors” (N30 PHARMACEUTICALS, INC., priority 2011, published 2014).
Read-outs that look alike come from different tables or passages of the source.

Tests used:
[1] = system: cigarette smoke-induced COPD; experiment: Subchronic (11 day) cigarette smoke exposure COPD model; type: in vivo, mouse; details: for effects compared with roflumilast: roflumilast 5 mg/kg/day
Method: Infiltration of inflammatory cells into the bronchoalveolar lavage fluid (BALF) and BALF levels of chemokines involved in inflammation and tissue turnover/repair were measured to assess the influences of GSNOR inhibitors on some of the early events associated with the initiation and progression of COPD. […] In animal models, changes in lung pathology are only evident after extended (several months) duration of exposure to cigarette smoke, thus making chronic models prohibitive as effective screening tools. […] The key roles of inflammation in the initiation and progression of COPD, make these short duration models relevant for initial tests of efficacy of novel therapeutics. Female C57Bl/6 mice (N=10 per group) were exposed to cigarette smoke generated from Marlboro 100 cigarettes without filters. Exposure times were 25 min. on study day 1, 35 min. on study day 2, and 45 min. on study days 3 to 11. GSNOR inhibitors were administered one hour prior to smoke exposure on each day. GSNOR inhibitors were dosed orally at 1 to 10 mg/kg/day for 11 days. […] The effect of GSNOR inhibitors were compared to vehicle treated controls and expressed as percent inhibition of the cigarette smoke induced increases in BALF cell numbers. Roflumilast was used as the positive control for the study and was dosed at 5 mg/kg/day. A group of naïve mice (N=10) was exposed to air and dosed with vehicle as a negative control for the study.

[2] = target: T1, S-nitrosoglutathione reductase (GSNOR) (Homo sapiens, UniProt P11766); experiment: GSNOR assay (inhibition of GSNOR activity, NADH absorbance at 340 nm); type: biochemical
T1 construct: made in house; host or cells: E. coli
Outline: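 Recombinant GSNOR purified from E. coli, tag removed. Final conditions: 100 mM NaPO4 pH 7.4, 0.240 mM GSNO, 0.300 mM NADH, 0.5 μg/mL enzyme, 1% DMSO; NADH loss followed as 340 nm absorbance change over 3 min at 25 °C. Compounds 100–0.003 μM, triplicate; IC50 by curve analysis.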

[3] = system: dextran sodium sulfate (DSS)-induced IBD; experiment: Acute prophylactic model of DSS-induced IBD; type: in vivo, mouse; details: oral 10 mg/kg/day for 10 days, prophylactic
Excerpt: Acute and chronic models of dextran sodium sulfate (DSS)-induced IBD in mice were used to explore efficacy of GSNORi against this disease. Acute and chronic DSS-induced IBD are widely used and well characterized models that induce pathological changes in the colon similar to those observed in the human disease. In these models and in human disease, epithelial cells within the crypts of the colon are disrupted, leading to dysfunction of the epithelial barrier and the ensuing tissue inflammation, edema, and ulceration. GSNORi therapy may benefit IBD by restoring s-nitrosoglutathione (GSNO) levels, and thus prevent or reverse the epithelial barrier dysfunction. Experimental IBD was induced by administration of DSS in the drinking water of male C57Bl/6 mice (N=8 to 10 mice per group) for 6 consecutive days. GSNORi was dosed orally at doses of 0.1 to 10 mg/kg/day for 10 days starting two days prior to and continuing two days post DSS exposure. […] Levels of circulating cytokines involved in inflammatory pathways were also assessed. The effect of GSNORi was compared to vehicle treated controls. […] Naïve mice (N=5) were also assessed as a normal tissue control.

[4] = system: ovalbumin (OVA)-induced asthma; experiment: Mouse model of ovalbumin (OVA)-induced asthma (Penh, eosinophil infiltrate in BALF); type: in vivo; details: three oral doses of 10 mg/kg at 48 h, 24 h, and 1 h prior to assessment
Method: A mouse model of ovalbumin (OVA)-induced asthma was used to screen GSNOR inhibitors for efficacy against methacholine (MCh)-induced bronchoconstriction/airway hyper-responsiveness. This is a widely used and well characterized model that presents with an acute, allergic asthma phenotype with similarities to human asthma. Efficacy of GSNOR inhibitors was assessed using a protocol in which GSNOR inhibitors were administered after OVA sensitization and airway challenge, and prior to challenge with MCh. Bronchoconstriction in response to challenge with increasing doses of MCh was assessed using whole body plethysmography (Penh; Buxco). The amount of eosinophil infiltrate into the bronchoaveolar lavage fluid (BALF) was also determined as a measure of lung inflammation. The effects of GSNOR inhibitors were compared to vehicles and to Combivent (inhaled; IH) as the positive control.
OVA (500 μg/ml) in PBS was mixed with equal volumes of 10% (w/v) aluminum potassium sulfate in distilled water and incubated for 60 min. at room temperature after adjustment to pH 6.5 using 10 N NaOH. After centrifugation at 750×g for 5 min, the OVA/alum pellet was resuspended to the original volume in distilled water. Mice received an intraperitoneal (IP) injection of 100 μg OVA (0.2 mL of 500 μg/mL in normal saline) complexed with alum on day 0. Mice were anesthetized by IP injection of a 0.2-mL mixture of ketamine and xylazine (0.44 and 6.3 mg/mL, respectively) in normal saline and were placed on a board in the supine position. Two hundred fifty micrograms (100 μl of a 2.5 mg/ml) of OVA (on day 8) and 125 μg (50 μl of 2.5 mg/ml) OVA (on days 15, 18, and 21) were placed on the back of the tongue of each animal.
In vivo airway responsiveness to methacholine was measured 24 h after the last OVA challenge in conscious, freely moving, spontaneously breathing mice with whole body plethysmography using a Buxco chamber (Wilmington, N.C.). Mice were challenged with aerosolized saline or increasing doses of methacholine (5, 20, and 50 mg/mL) generated by an ultrasonic nebulizer for 2 min. The degree of bronchoconstriction was expressed as enhanced pause (Penh), a calculated dimensionless value, which correlates with the measurement of airway resistance, impedance, and intrapleural pressure in the same mouse. Penh readings were taken and averaged for 4 min. after each nebulization challenge. Penh is calculated as follows: Penh=[(Te/Tr−1)×(PEF/PIF)], where Te is expiration time, Tr is relaxation time, PEF is peak expiratory flow, and PIF is peak inspiratory flow×0.67 coefficient. The time for the box pressure to change from a maximum to a user-defined percentage of the maximum represents the relaxation time. The Tr measurement begins at the maximum box pressure and ends at 40%.
After measurement of airway hyper-reactivity, the mice were exsanguinated by cardiac puncture, and then BALF was collected from either both lungs or from the right lung after tying off the left lung at the mainstem bronchus. Total BALF cells were counted from a 0.05 mL aliquot, and the remaining fluid was centrifuged at 200×g for 10 min at 4° C. Cell pellets were resuspended in saline containing 10% BSA with smears made on glass slides. Eosinophils were stained for 5 min. with 0.05% aqueous eosin and 5% acetone in distilled water, rinsed with distilled water, and counterstained with 0.07% methylene blue. Alternatively, eosinophils and other leukocytes were stained with DiffQuik.
GSNOR inhibitors were reconstituted in phosphate buffered saline (PBS), pH 7.4, or 0.5% w/v carboxy methylcellulose at concentrations ranging from 0.00005 to 3 mg/mL. GSNOR inhibitors were administered to mice (10 mL/kg) as a single dose or multiple dose either intravenously (IV) or orally via gavage. Dosing was performed from 30 min. to 72 h prior to MCh challenge. Effects of GSNOR inhibitors were compared to vehicle dosed in the same manner.
Combivent was used as the positive control in all studies. […]

[5] = GSNOR inhibitor activity, Tables 1-6, read-out: IC50 range
[6] = subchronic 11 day model, oral 1 mg/kg/day for 11 days
[7] = Table 7, GSNOR inhibition, IC50 range class a/b/c, read-out: IC50

T1 sequence (P11766 whole entry): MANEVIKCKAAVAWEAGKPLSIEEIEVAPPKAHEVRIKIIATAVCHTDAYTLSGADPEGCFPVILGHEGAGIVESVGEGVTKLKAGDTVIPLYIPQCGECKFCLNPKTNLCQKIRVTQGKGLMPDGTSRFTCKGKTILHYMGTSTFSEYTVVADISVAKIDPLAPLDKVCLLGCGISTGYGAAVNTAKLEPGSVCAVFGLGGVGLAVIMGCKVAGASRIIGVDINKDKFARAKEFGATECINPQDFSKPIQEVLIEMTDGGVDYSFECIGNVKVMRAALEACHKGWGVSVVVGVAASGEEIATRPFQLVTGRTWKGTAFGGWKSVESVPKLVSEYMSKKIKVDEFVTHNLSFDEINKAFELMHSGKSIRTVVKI

Compound	IC50 [2, 5] [nM]	also measured
O=C(O)c1ccc(-c2ccc3cc(O)ccc3n2)c(Cl)c1 [Compound I-8, 3-chloro-4-(6-hydroxyquinolin-2-yl)benzoic acid]	< 100	dose response of effect ([1]; subchronic 11 day model, 1, 5, or 10 mg/kg/day): no dose response of effect; effects compared with roflumilast ([1]; subchronic 11 day model): comparable to those of roflumilast; decrease of percent of mice with severe colon injury scores via endoscopy [3]: 44 % of vehicle control; decrease of percent of mice with severe colon injury scores via histopathology [3]: 26 % of vehicle control
CCCn1c(-c2ccc(O)cc2)ccc1-c1ccc(C(=O)O)cc1 [VII-37, 4-(5-(4-hydroxyphenyl)-1-propyl-1H-pyrrol-2-yl)benzoic acid]		IC50 [2, 7]: < 100 nM
O=C(O)[C@H]1CC[C@H](c2nc3ccc(O)cc3cc2Cl)CC1 [Compound I-35]	100 to 1000	
O=C(O)c1ccc(-c2csc(-c3ccc(O)cc3)c2)s1 [VII-20, 5′-(4-hydroxyphenyl)-[2,3′-bithiophene]-5-carboxylic acid]		IC50 [2, 7]: 100 to 1000 nM
O=C(O)c1ccc(CC(=O)c2cc(F)c(O)c(F)c2)c(F)c1 [VI-8, 4-(2-(3,5-difluoro-4-hydroxyphenyl)-2-oxoethyl)-3-fluorobenzoic acid]	100 to 1000	
Oc1ccc2nc(-c3ccc(-c4nn[nH]n4)s3)ccc2c1 [Compound I-38]	100 to 1000	
O=C(O)c1ccc(-c2ccc(-c3ccc(O)cc3)cc2)s1 [VII-21, 5-(4′-hydroxy-[1,1′-biphenyl]-4-yl)thiophene-2-carboxylic acid]		IC50 [2, 7]: 100 to 1000 nM
O=c1nc(-c2ccc(-c3ccc4cc(O)ccc4n3)cc2)o[nH]1 [Compound I-34]	100 to 1000	
CN(C)c1cc(-c2ccc(C(=O)O)cc2)nc2ccc(O)cc12 [Compound I-47, 4-(4-(dimethylamino)-6-hydroxyquinolin-2-yl)benzoic acid]	100 to 1000	
O=C(O)c1ccc(-c2ncc(-c3ccc(O)cc3)cn2)cc1 [VII-14, 4-(5-(4-hydroxyphenyl)pyrimidin-2-yl)benzoic acid]		IC50 [2, 7]: 1000 to 10000 nM
O=C(O)c1ccc(-c2nc3ccc(O)cc3s2)cc1 [VIII-7, 4-(6-hydroxybenzo[d]thiazol-2-yl)benzoic acid]		IC50 ([2]; Table 8, GSNOR inhibition, IC50 range class a/b/c, read-out: IC50): 100 to 1000 nM
O=C(O)c1ccc(C[S+]([O-])c2ccc(O)cc2)c(F)c1 (stereo not drawn) [VI-25, 3-fluoro-4-(((4-hydroxyphenyl)sulfinyl)methyl)benzoic acid]	100 to 1000	
O=C(O)c1ccc(CSc2ccc(O)cc2)c(F)c1 [VI-24, 3-fluoro-4-(((4-hydroxyphenyl)thio)methyl)benzoic acid]	100 to 1000	
O=C(O)[C@H]1CC[C@@H](c2nc3ccc(O)cc3cc2C(F)(F)F)CC1 [Compound I-44]	1000 to 10000	

The next lines start with results.

IC50 [2, 5] [nM]	Compound	also measured
< 100	Cc1cc(C(=O)O)ccc1-c1ccc2cc(O)ccc2n1 [Compound I-27]	inhibition of smoke-induced increase in lymphocytes in BAL [1, 6]: 46%; inhibition of smoke-induced increase in macrophages in BAL [1, 6]: 41%; inhibition of smoke-induced increase in neutrophils in BAL [1, 6]: 64%; inhibition of smoke-induced increase in total cells in BAL [1, 6]: 44%; effects compared with roflumilast ([1]; subchronic 11 day model): comparable to those of roflumilast; decrease of eosinophil infiltration in BAL [4]: 23 % of vehicle control
100 to 1000	O=C(O)c1ccc(-c2ccc3cc(O)ccc3c2)nc1 [III-7]	
100 to 1000	O=C(O)c1ccc(COc2cc(F)c(O)cc2F)c(F)c1 [VI-22, 4-((2,5-difluoro-4-hydroxyphenoxy)methyl)-3-fluorobenzoic acid]	
< 100	O=C(O)c1ccc(-c2cc3ccc(O)cc3cc2Cl)cc1 [III-22, 4-(3-chloro-6-hydroxynaphthalen-2-yl)benzoic acid]	
100 to 1000	O=C(O)c1ccc(CC(=O)c2ccc(O)c(F)c2O)c(F)c1 [VI-27, 3-fluoro-4-(2-(3-fluoro-2,4-dihydroxyphenyl)-2-oxoethyl)benzoic acid]	
100 to 1000	O=C(O)c1ccc(COc2ccc(O)c(F)c2)c(F)c1 [VI-23, 3-fluoro-4-((3-fluoro-4-hydroxyphenoxy)methyl)benzoic acid]	
< 100	O=C(O)c1ccc(-c2cc3ccc(O)cc3cn2)c(F)c1 [II-24, 3-fluoro-4-(7-hydroxyisoquinolin-3-yl)benzoic acid]	
< 100	O=C(O)c1ccc(-c2nnc3cc(O)ccc3n2)c(F)c1 [II-20]	
< 100	CCOc1cc(-c2c(C(F)(F)F)oc3cc(O)ccc3c2=O)cc([N+](=O)[O-])c1O [IV-46, 3-(3-ethoxy-4-hydroxy-5-nitrophenyl)-7-hydroxy-2-(trifluoromethyl)-4H-chromen-4-one]	
< 100	COc1cc(C(=O)O)ccc1-c1ccc2cc(O)ccc2c1 [III-3]	
< 100	O=C(O)c1ccc(-c2c(C(F)(F)F)oc3cc(O)ccc3c2=O)c(Cl)c1 [IV-15]	
< 100	O=C(O)c1ccc(-c2c(C(F)(F)F)oc3cc(O)ccc3c2=O)cc1F [IV-14]	
